Three compounds from patent US20200023000A1, “SYNERGISM OF GOS AND POLYFRUCTOSE” (N.V. Nutricia, priority 2004, published 2020) can be followed below.

Test [1] deals with PGE1 and PGE2 response in CCD18 cells. The experiment in a line: Spontaneous PGE1 and PGE2 response in CCD18 cells. Type of test: cell-based. Conditions: n=7. Here is the method: (§1) The effect of lactate and a SCFA mixture was analysed as described in Willemsen, L E M, Koetsier M A, van Deventer S J H, van Tol E A F (2003), Gut 52:1442-1447, with the following modifications: Lactate and a mixture of acetate/propionate/butyrate 90/5/5 was tested. For the mucus production experiments a co-culture of CCD18 and T84 cells was used, whereas for the PGE1 and PGE2 production experiments a monoculture of CCD18 cells was used.

The subject of test [2] is muc-2 expression in a CCD18/T84 co-culture. The experiment in a line: muc-2 expression in CCD18/T84 co-culture. Type of test: cell-based. Here is the method: as §1
Test [3] relates to distal and proximal part of the colon. Description: Contraction of isolated colon segments in organ bath. More on the design: species or system Male Wistar rats. As to conditions: for Tension of tonic contractions (FIG. 5): increasing concentrations up to 100 mM, effect higher in distal than proximal colon. The source says:
Male Wistar rats (CKP/Harlan, Wageningen/Horst, Netherlands) were housed under conditions of controlled temperature and light cycle and were provided free access to food pellets and water. Animals were anaesthetised by a mixture of N2O, O2 and isofluran, the abdomen was opened and the colon was removed immediately. The tissue was placed in Krebs-Henseleit buffer pH 7.4 (composition in mM: 118.0 NaCl, 4.75 KCl, 1.18 MgSO4, 2.5 CaCl2, 10 glucose, 1.17 KH2PO4 and 24.9 NaHCO3).
The colon was cut into a distal and a proximal portion and was rinsed with Krebs-Henseleit buffer while gently squeezing out faecal content. To approximate in vivo conditions as closely as possible, 1 cm fully intact segments were attached longitudinally to an isometric force transducer (F30 type 372, HSE, Germany) in 20 ml water-jacketed (37° C.) organ baths (Schuler, HSE, Germany) containing Krebs-Henseleit buffer gassed continuously with 95% O2-5% CO2. The segments were gradually stretched to a resting tension of 1 g and allowed to equilibrate for 45 minutes with intermittent washings. The tensions of the segments in rest and in response to different stimuli were amplified by a transducer amplifier module (HSE, Germany) and recorded on a multi-pen recorder (Rikadenki, HSE, Germany).
The segments were incubated with 40 mM KCl for 5 minutes and the contractile responses were measured. KCl was washed out by three consecutive washes at 5 minutes intervals. The segments were then incubated with increasing concentrations up to 100 mM of acetate or sodium-L-lactate. The acid solutions were prepared freshly in distilled water. NaOH was added to acetate to obtain a neutral pH. At the end of the incubation with a fatty acid, 40 mM KCl was added to determine whether the contractile response to KCl was influenced by the fatty acid. Before a new incubation the segments were allowed to equilibrate for 45 minutes in fresh Krebs-Henseleit buffer with intermittent washings.
The experimental protocol consisted of two proximal and two distal sections of the colon. For data analysis (n=3), the contraction level induced by the stimuli was defined as the tension in g after 5 minutes incubation. Data obtained from identical segments (proximal or distal) were used to calculate a mean value and each segment served as its own control sample.

Where [4] appears, read: proximal part of the colon, 25 mM.
Where [5] appears, read: proximal part of the colon, concentrations higher than 25 mM.

Regarding `C[C@H](O)C(=O)O` [L-lactate], the “Increase of PGE1 (FIG. 4b)” value in test [1] (at 100 μM) was “statistically significant”. Besides, the “Increase of PGE2 (FIG. 4b)” value in test [1] (at 250 μM, P<0.05) is on record as “statistically significant”. The “Increase of muc-2 expression (FIG. 4a)” value in test [2] (at 0.5, 1 and 4 mM, n=6) is listed as “statistically significant”. In addition, in test [2] (co-culture of CCD18 and T84 cells), the “MUC-2 expression, dose dependence (FIG. 4A)” value is reported as “dose dependently induces MUC-2 expression”.
Turning to `CC(=O)[O-].[Na+]` [sodium acetate, reference compound], the “Number of spontaneous (phasic) contractions” value in test [3] (distal part of the colon) is given as “no effects are observed”; in test [3] (proximal part of the colon) it was “decrease”. Besides, the “Tension of tonic contractions (FIG. 5)” value in test [3] is “decrease the tension of tonic contractions”. The “Tonic contractions as a response to KCl” value in test [3] (setting [4]) is reported as “comparable in the presence or absence”; in test [3] (setting [5]), “significant relaxation”.
Regarding `C[C@H](O)C(=O)[O-].[Na+]` [sodium-L-lactate], the “Number of spontaneous (phasic) contractions” value is given as “no effects are observed” in test [3] (distal part of the colon) and “decrease” in test [3] (proximal part of the colon). Besides, the “Tension of tonic contractions (FIG. 5)” value in test [3] was “decrease the tension of tonic contractions”. For the same compound, the “Tonic contractions as a response to KCl” value in test [3] (setting [4]) was “comparable in the presence or absence”; in test [3] (setting [5]), “significant relaxation”.
